In patent US7732478B2, “Methods for facilitating metabolic control” (The Trustees of Columbia University in The City of New York, priority 2005, dated 2010):

Columns and labels:
[1] = test system: circulating levels of TNF-α, and IL-6; details: infusion of glutathione; healthy and impaired glucose tolerance individuals; cited from earlier work
serum glucose = experiment: Serum glucose levels as indicator of metabolic control; format: in vivo, human; details: Ketorolac treatment, Example 11
Description: (§1) Glycated hemoglobin (HbA1c) levels were measured from freshly drawn anticoagulated whole blood using an automated affinity chromatography system (BioRad Micromat II, Hercules, Calif.). Serum glucose was determined by the glucose oxidase method (Roche Diagnostics, Basel, CH). […] The study is performed as described in example 8. HbA1c levels and serum glucose levels, which are used as indicators of metabolic control, are measured as described in example 6.

IL-1β in GCF [2] = details: used as an oral rinse; cited from earlier work
circulating TNF = experiment: Circulating TNF level (blood TNF alpha immunoassay) after ketorolac oral rinse; format: in vivo, human; details: oral rinse containing 0.1% Ketorolac twice daily for 6 months; type 2 diabetes and chronic periodontitis subjects
Description: Subjects are selected and divided into different groups as described in Examples 1 and 2. An oral rinse containing 0.1% Ketorolac was administered twice daily for 6 months to reduce the level of IL-1β in GCF in the subjects (see, Cavanaugh et al., Coordinate production of PGE2 and IL-1 beta in the gingival crevicular fluid of adults with periodontitis: its relationship to alveolar bone loss and disruption by twice daily treatment with ketorolac tromethamine oral rinse. J. Periodontal Res. 33:75-82, 1998). GCF samples are collected following the procedures of example 3 and the level of IL-1β in GCF is determined as described in example 5. Circulating TNF level is determined by measuring blood TNF level using the TNF alpha immunoassay kit (Assay Designs Inc., Ann Arbor, Mich.) following the manufacturer's instructions.

HbA1c = HbA1c levels as indicator of metabolic control; format: in vivo, human; details: Ketorolac treatment, Example 11
Description: as §1

IL-1β in GCF [3] = experiment: Level of IL-1β in gingival crevicular fluid (sandwich ELISA) after ketorolac oral rinse; format: in vivo, human; details: Ketorolac treatment, Example 11
From the text: The clinical evaluation was preceded by collection of GCF, as previously described (Lamster et al., A comparison of 4 methods of data presentation for lysosomal enzyme activity in gingival crevicular fluid. J. Clin. Periodontol., 15:347-52, 1988; Lamster et al., Correlation analysis for clinical and gingival crevicular fluid parameters at anatomically related gingival sites. J. Clin. Periodontol., 18:272-77, 1991), from the mesiolingual and mesiobuccal surfaces of the first molar tooth in each quadrant. Where the first molar was absent, the second molar was sampled. If both the first and second molar were missing, the second premolar was sampled. If there were no posterior teeth in a quadrant, no sample was taken from that quadrant.
Briefly, teeth were air-dried and isolated with cotton rolls, supragingival plaque was gently removed, and GCF was sampled with precut methylcellulose filter paper strips for 30 sec. Strips were measured for fluid volume with a calibrated Periotron 6000 (Interstate Drug Exchange, Amityville, N.Y.), then removed to separate microcentrifuge tubes containing 50 μl of phosphate-buffered saline (Tween 20). […] Following elution, each GCF sample was analyzed separately.
GCF samples were analyzed for IL-1β using a commercially-available enzyme-linked immunosorbant assay, Multikine Kit (Cistron Biotechnology, Pine Brook, N.J.). […]

In the case of `N[C@@H](CCC(=O)N[C@@H](CS)C(=O)NCC(=O)O)C(=O)O` [glutathione], the “circulating cytokines following a glucose bolus administration” value [1] is listed as “no increase of cytokines”.
In the case of `O=C(c1ccccc1)c1ccc2n1CCC2C(=O)O` (stereo not drawn) [Ketorolac], the serum glucose levels (serum glucose) is listed as “decline”, the “GCF IL-1β in the oral cavity” value (IL-1β in GCF [2]) is listed as “reduce GCF IL-1β” and the “level of serum TNF” value (circulating TNF) is listed as “significant reduction”. The HbA1c levels (HbA1c) was “decline of HbA1c levels” and the “levels of IL-1β in GCF” value (IL-1β in GCF [3]) was “reducing the levels of IL-1β in GCF”.
